Laboratory results published in PubChem BioAssay (NCI).
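Briefly, cells in 96-well plates were exposed to five compound concentrations for 48 h, and endpoints were estimated by linear interpolation. Here, GI50 denotes the concentration required for 50% inhibition of growth. TGI marks complete inhibition of growth.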

Tests used:
Assay in all cases: NCI-60 cell line screen, 48 h
DU-145 prostate = tested on: DU-145 prostate
SNB-19 CNS = tested on: SNB-19 CNS
NCI-H23 lung = tested on: NCI-H23 lung
MDA-MB-435 = tested on: MDA-MB-435
SK-MEL-5 melanoma = tested on: SK-MEL-5 melanoma
SR leukemia = tested on: SR leukemia
SF-268 CNS = tested on: SF-268 CNS
TK-10 renal = tested on: TK-10 renal
NCI-H226 lung = tested on: NCI-H226 lung
M14 melanoma = tested on: M14 melanoma
PC-3 prostate = tested on: PC-3 prostate
NCI-H522 lung = tested on: NCI-H522 lung
HOP-62 NSCLC = tested on: HOP-62 NSCLC
A498 renal = tested on: A498 renal
A549 NSCLC = tested on: A549 NSCLC
LOX IMVI melanoma = tested on: LOX IMVI melanoma
CAKI-1 renal = tested on: CAKI-1 renal
UACC-257 melanoma = tested on: UACC-257 melanoma
IGROV1 ovarian = tested on: IGROV1 ovarian
SF-539 CNS = tested on: SF-539 CNS
K-562 leukemia = tested on: K-562 leukemia
SF-295 CNS = tested on: SF-295 CNS
KM12 colon = tested on: KM12 colon
SN12C renal = tested on: SN12C renal
OVCAR-5 ovarian = tested on: OVCAR-5 ovarian
MDA-MB-231 breast = tested on: MDA-MB-231 breast
HCT-116 colon = tested on: HCT-116 colon
T-47D breast = tested on: T-47D breast
HOP-92 NSCLC = tested on: HOP-92 NSCLC
RPMI-8226 leukemia = tested on: RPMI-8226 leukemia
NCI-H460 lung = tested on: NCI-H460 lung
UO-31 renal = tested on: UO-31 renal
HCT-15 colon = tested on: HCT-15 colon
OVCAR-4 ovarian = tested on: OVCAR-4 ovarian
EKVX NSCLC = tested on: EKVX NSCLC
UACC-62 melanoma = tested on: UACC-62 melanoma
ACHN renal = tested on: ACHN renal
HL-60(TB) leukemia = tested on: HL-60(TB) leukemia
RXF 393 renal = tested on: RXF 393 renal
SW-620 colon = tested on: SW-620 colon
MCF7 breast = tested on: MCF7 breast
HCC-2998 colon = tested on: HCC-2998 colon
MALME-3M melanoma = tested on: MALME-3M melanoma
NCI/ADR-RES ovarian = tested on: NCI/ADR-RES ovarian
SK-OV-3 ovarian = tested on: SK-OV-3 ovarian
BT-549 breast = tested on: BT-549 breast
OVCAR-8 ovarian = tested on: OVCAR-8 ovarian
CCRF-CEM leukemia = tested on: CCRF-CEM leukemia
COLO 205 colon = tested on: COLO 205 colon
OVCAR-3 ovarian = tested on: OVCAR-3 ovarian
MOLT-4 leukemia = tested on: MOLT-4 leukemia
HT29 colon = tested on: HT29 colon
U251 CNS = tested on: U251 CNS
SK-MEL-28 melanoma = tested on: SK-MEL-28 melanoma
SK-MEL-2 melanoma = tested on: SK-MEL-2 melanoma
786-0 renal = tested on: 786-0 renal
HS 578T breast = tested on: HS 578T breast
SNB-75 CNS = tested on: SNB-75 CNS

N#C/C(=C\c1ccc[nH]1)c1cc(-c2ccc(Cl)cc2)nn1-c1ccccc1
GI50 (DU-145 prostate): 3.81 µM
TGI (DU-145 prostate): > 40.7 µM
GI50 (SNB-19 CNS): 9.35 µM
TGI (SNB-19 CNS): > 56.9 µM
GI50 (NCI-H23 lung): 4.19 µM
TGI (NCI-H23 lung): 22.1 µM
GI50 (MDA-MB-435): 2.7 µM
TGI (MDA-MB-435): 13.2 µM
GI50 (SK-MEL-5 melanoma): 6.47 µM
TGI (SK-MEL-5 melanoma): 19.4 µM
GI50 (SR leukemia): 1.97 µM
TGI (SR leukemia): 6.28 µM
GI50 (SF-268 CNS): 4.05 µM
TGI (SF-268 CNS): 18.3 µM
GI50 (TK-10 renal): 3.12 µM
TGI (TK-10 renal): 21.1 µM
GI50 (NCI-H226 lung): 7.71 µM
TGI (NCI-H226 lung): 37.2 µM
GI50 (M14 melanoma): 4.09 µM
TGI (M14 melanoma): 14.8 µM
GI50 (PC-3 prostate): 3.12 µM
TGI (PC-3 prostate): 23.1 µM
GI50 (NCI-H522 lung): 5.19 µM
TGI (NCI-H522 lung): 29.4 µM
GI50 (HOP-62 NSCLC): 7.63 µM
TGI (HOP-62 NSCLC): 24.2 µM
GI50 (A498 renal): 2.62 µM
TGI (A498 renal): 12.6 µM
GI50 (A549 NSCLC): 6.92 µM
TGI (A549 NSCLC): > 64.7 µM
GI50 (LOX IMVI melanoma): 4.9 µM
TGI (LOX IMVI melanoma): 16.8 µM
GI50 (CAKI-1 renal): 3.16 µM
TGI (CAKI-1 renal): > 100 µM
GI50 (UACC-257 melanoma): 10.9 µM
TGI (UACC-257 melanoma): 35.8 µM
GI50 (IGROV1 ovarian): 14 µM
TGI (IGROV1 ovarian): > 95.4 µM
GI50 (SF-539 CNS): 6.05 µM
TGI (SF-539 CNS): 18.9 µM
GI50 (K-562 leukemia): 3.24 µM
TGI (K-562 leukemia): 10.9 µM
GI50 (SF-295 CNS): 2.8 µM
TGI (SF-295 CNS): 13 µM
GI50 (KM12 colon): 2.68 µM
TGI (KM12 colon): 11.6 µM
GI50 (SN12C renal): 5.87 µM
TGI (SN12C renal): > 48 µM
GI50 (OVCAR-5 ovarian): 15.7 µM
TGI (OVCAR-5 ovarian): 50.3 µM
GI50 (MDA-MB-231 breast): 5.78 µM
TGI (MDA-MB-231 breast): 33 µM
GI50 (HCT-116 colon): 3.28 µM
TGI (HCT-116 colon): 12.8 µM
GI50 (T-47D breast): 1.56 µM
TGI (T-47D breast): 13.1 µM
GI50 (HOP-92 NSCLC): 2.54 µM
TGI (HOP-92 NSCLC): 10.2 µM
GI50 (RPMI-8226 leukemia): 2.48 µM
TGI (RPMI-8226 leukemia): 9.77 µM
GI50 (NCI-H460 lung): 3.43 µM
TGI (NCI-H460 lung): 13.3 µM
GI50 (UO-31 renal): 3.82 µM
TGI (UO-31 renal): 31 µM
GI50 (HCT-15 colon): 5.37 µM
TGI (HCT-15 colon): 25.1 µM
GI50 (OVCAR-4 ovarian): 1.73 µM
TGI (OVCAR-4 ovarian): > 56.3 µM
GI50 (EKVX NSCLC): 2.89 µM
TGI (EKVX NSCLC): > 100 µM
GI50 (UACC-62 melanoma): 7.39 µM
TGI (UACC-62 melanoma): 28.2 µM
GI50 (ACHN renal): 5.55 µM
TGI (ACHN renal): 47.5 µM
GI50 (HL-60(TB) leukemia): 4.36 µM
TGI (HL-60(TB) leukemia): 29.3 µM
GI50 (RXF 393 renal): 6.89 µM
TGI (RXF 393 renal): 24.2 µM
GI50 (SW-620 colon): 3.75 µM
TGI (SW-620 colon): > 41.8 µM
GI50 (MCF7 breast): 0.449 µM
TGI (MCF7 breast): 19.7 µM
GI50 (HCC-2998 colon): 3.5 µM
TGI (HCC-2998 colon): 12.4 µM
GI50 (MALME-3M melanoma): 3.05 µM
TGI (MALME-3M melanoma): 17.2 µM
GI50 (NCI/ADR-RES ovarian): 3.93 µM
TGI (NCI/ADR-RES ovarian): > 31.4 µM
GI50 (SK-OV-3 ovarian): 7.88 µM
TGI (SK-OV-3 ovarian): 40.2 µM
GI50 (BT-549 breast): 4.72 µM
TGI (BT-549 breast): 15.7 µM
GI50 (OVCAR-8 ovarian): 11.5 µM
TGI (OVCAR-8 ovarian): > 100 µM
GI50 (CCRF-CEM leukemia): 3.59 µM
TGI (CCRF-CEM leukemia): 22 µM
GI50 (COLO 205 colon): 3.16 µM
TGI (COLO 205 colon): 8.17 µM
GI50 (OVCAR-3 ovarian): 2.37 µM
TGI (OVCAR-3 ovarian): 8.69 µM
GI50 (MOLT-4 leukemia): 2.52 µM
TGI (MOLT-4 leukemia): 8.23 µM
GI50 (HT29 colon): 3.31 µM
TGI (HT29 colon): 13 µM
GI50 (U251 CNS): 7.07 µM
TGI (U251 CNS): 24 µM
GI50 (SK-MEL-28 melanoma): 4.57 µM
TGI (SK-MEL-28 melanoma): 17.5 µM
GI50 (SK-MEL-2 melanoma): 8.65 µM
TGI (SK-MEL-2 melanoma): 34.6 µM
GI50 (786-0 renal): 6.06 µM
TGI (786-0 renal): 27.5 µM
GI50 (HS 578T breast): 2.17 µM
TGI (HS 578T breast): 14.1 µM
GI50 (SNB-75 CNS): 2.29 µM
TGI (SNB-75 CNS): 16 µM
